Source: patent publication US9315494B2, “Alkyl-amide-substituted pyridyl compounds useful as modulators of IL-12, IL-23 and/or IFNα responses” (Bristol-Myers Squibb Company, priority 2012, dated 2016)
Like-named read-outs stand apart in the source and are kept apart here.

Assays:
[1] = tested on: IFNα-stimulated STAT-dependent luciferase reporter in Kit225 T cells; experiment: Kit225 T cell assay, IFNα stimulated STAT-dependent luciferase reporter; type: cell-based, human
Procedure: (§1) Kit225 T cells with a stably-integrated STAT-dependent luciferase reporter were plated in RPMI (Gibco) containing 10% heat-inactivated FBS (Gibco) and 100 U/mL PenStrep (Gibco). The cells were then stimulated with either 20 ng/mL human recombinant IL-23 or 200 U/mL human recombinant IFNα (PBL InterferonSource) for 5-6 hours. Luciferase expression was measured using the STEADY-GLO® Luciferase Assay System (Promega) according to the manufacturer's instructions.

[2] = tested on: IL-23-stimulated STAT-dependent luciferase reporter in Kit225 T cells; experiment: Kit225 T cell assay, IL-23 stimulated STAT-dependent luciferase reporter; type: cell-based, human
Procedure: as §1

[3] = Kit225 T cells, 200 U/mL human recombinant IFNα, 5-6 hours, luciferase, read-out: IFNα (Kit225 T Cell Inhibition Data)
[4] = Kit225 T cells, 20 ng/mL human recombinant IL-23, 5-6 hours, luciferase, read-out: IL23 (Kit225 T Cell Inhibition Data)

IC50 [1, 3] [nM]	IC50 [2, 4] [nM]	IC50 ([1]; Homo sapiens, KIT225, read-out: IFNα (Kit225 T Cell Inhibition Data)) [nM]	IC50 ([2]; Homo sapiens, KIT225, read-out: IL23 (Kit225 T Cell Inhibition Data)) [nM]	Compound
330	260			CNC(=O)c1cnc(Nc2ccc3cnccc3n2)cc1Nc1ccccc1S(C)(=O)=O [Example 417]
720	1650			CNC(=O)c1cnc(Nc2cccc(C(F)(F)F)n2)cc1Nc1ccc(F)cc1OC [Example 156]
1520	2700			CNC(=O)c1cnc(Nc2cccc(-c3ccccc3)n2)cc1Nc1ccc(F)cc1OC [Example 150]
740	854			CNC(=O)c1cnc(Nc2ccc(-c3ccccc3)cn2)cc1Nc1ccccc1C(N)=O [Example 76]
160	223			CNC(=O)c1ccnc(Nc2cc(Nc3cc(F)cc(F)c3OC)c(C(=O)NC)cn2)c1 [Example 273]
860	2200			CNC(=O)c1cnc(Nc2ccc(F)cn2)cc1Nc1ccc(F)cc1OC [Example 119]
8.77	60			[2H]C([2H])([2H])NC(=O)c1cnc(Nc2cc(C)nc(C)n2)cc1Nc1cccc(-c2cnn(C)c2)c1OC [Example 397]
130	130			CNC(=O)c1cnc(Nc2cc(C)c(F)cn2)cc1Nc1cccc(C(=O)NC2CC2)c1OC [Example 318]
140	476			CNC(=O)c1cnc(Nc2ccc(F)cn2)cc1Nc1ccccc1NS(C)(=O)=O [Example 279]
40	35.2			CNC(=O)c1cnc(Nc2cccc(OC)n2)cc1Nc1ccccc1S(C)(=O)=O [Example 24]
730	820			CNC(=O)c1cnc(Nc2ccc(OC)cn2)cc1Nc1ccccc1C(N)=O [Example 70]
520	1060			CNC(=O)c1cnc(Nc2ccccn2)cc1Nc1ccc(F)cc1OC [Example 147]
640	462			CNC(=O)c1cnc(Nc2ccc(C#N)cn2)cc1Nc1ccc(F)cc1OC [Example 124]
380	670			CNC(=O)c1cnc(Nc2cc(N(C)Cc3ccccc3)ncn2)cc1Nc1ccccc1S(C)(=O)=O [Example 425]
20	60			CNC(=O)c1cnc(Nc2cc(C)c(F)cn2)cc1Nc1cccc(C(=O)NCc2ccccc2)c1OC [Example 351]
1460	1240			CNC(=O)c1cnc(Nc2ccc(F)cn2)cc1Nc1ccc(S(C)(=O)=O)cc1OC [Example 44]
1910	6120			CNC(=O)c1cnc(Nc2cnc(C#N)cn2)cc1Nc1ccccc1S(C)(=O)=O [Example 41]
6410	10500			CNC(=O)c1cnc(Nc2ccc(F)cn2)cc1Nc1ccc(C(=O)NCCc2c[nH]cn2)cc1OC [Example 249]
70	170			CNC(=O)c1cnc(Nc2cc(C)c(F)cn2)cc1Nc1cccc(-c2ccnn2C)c1OC [Example 392]
8.34	6.22			CNC(=O)c1cnc(Nc2ccc(F)cn2)cc1Nc1cccc(-c2ncn(C)n2)c1OC [Example 373]
1760	2400			CNC(=O)c1ccc(Nc2cc(Nc3ccc(Cl)cc3OC)c(C(=O)NC)cn2)nc1 [Example 260]
160	190			CNC(=O)c1cnc(Nc2cccc(F)n2)cc1Nc1cc(F)ccc1S(C)(=O)=O [Example 54]
50	109			CNC(=O)c1cnc(Nc2ccccn2)cc1Nc1ccc(Cl)cc1S(C)(=O)=O [Example 12]
20	50			CNC(=O)c1cnc(Nc2cc(C)c(F)cn2)cc1Nc1cccc(-c2ncn(C)n2)c1OC(F)F [Example 388]

IC50 [1, 3] [nM]	IC50 [2, 4] [nM]	IC50 ([1]; Homo sapiens, KIT225, read-out: IFNα (Kit225 T Cell Inhibition Data)) [nM]	IC50 ([2]; Homo sapiens, KIT225, read-out: IL23 (Kit225 T Cell Inhibition Data)) [nM]	Compound
480	460			CNC(=O)c1cnc(Nc2cc(C(C)(C)C)ncn2)cc1Nc1ccccc1S(C)(=O)=O [Example 421]
		4900	6350	CNC(=O)c1cnc(Nc2ccc3ccccc3n2)cc1NC1CCCC1(F)F (stereo not shown) [Example 294]
660	612			CCS(=O)(=O)c1ccccc1Nc1cc(Nc2cc(C#N)ccn2)ncc1C(=O)NC [Example 33]
600	1060			CNC(=O)c1cnc(Nc2cc(C(=O)N(C)C)ccn2)cc1Nc1ccc(F)cc1OC [Example 272]
9030	5950			CNC(=O)c1cnc(Nc2ccc(F)cn2)cc1Nc1cc(F)ccc1F [Example 64]
560	1040			CNC(=O)c1cnc(Nc2ccc(F)cn2)cc1Nc1cccc(C)c1C(N)=O [Example 174]
3520	3130			CNC(=O)c1cnc(Nc2ccc(F)cn2)cc1Nc1ccc(OC)cc1 [Example 195]
260	409			CNC(=O)c1cnc(Nc2ccc(F)cn2)cc1Nc1ccc(C(=O)N2CCC(F)(F)C2)cc1OC [Example 247]
350	538			CNC(=O)c1cnc(Nc2cccc(-c3ccccc3)n2)cc1Nc1ccccc1C(N)=O [Example 77]
1160	1860			CNC(=O)c1cnc(Nc2ccc(F)cn2)cc1Nc1ccc(C(=O)N2CC(F)(F)C2)cc1S(C)(=O)=O [Example 308]
600	577			CNC(=O)c1ccnc(Nc2cc(Nc3ccc(F)c(F)c3OC)c(C(=O)NC)cn2)c1 [Example 257]
9.22	20			CNC(=O)c1cnc(Nc2cc(C)nc(C)n2)cc1Nc1cccc(-c2nc(C)n(C)n2)c1OC [Example 366]
2580	5090			CNC(=O)c1cnc(Nc2ccc3ccccc3n2)cc1Nc1ccccc1C(C)(C)O [Example 180]
140	160			CNC(=O)c1cnc(Nc2cc(C)c(F)cn2)cc1Nc1cccc(C(=O)NCC2(C)COC2)c1OC [Example 343]
1870	2800			CNC(=O)c1cnc(Nc2ccc(F)cn2)cc1Nc1ccc(C(N)=O)cc1C [Example 234]
120	388			CNC(=O)c1cnc(Nc2cc(C)ccn2)cc1Nc1ccccc1C(N)=O [Example 78]
3660	3260			CNC(=O)c1cnc(Nc2ccc(F)cn2)cc1Nc1ccc(C(=O)N2CCOCC2)cc1 [Example 245]
300	472			CNC(=O)c1cnc(Nc2ccc(F)cn2)cc1Nc1ccc(OC)cc1C(N)=O [Example 250]
1460	3160			CNC(=O)c1cnc(Nc2ccc(-n3cc(F)ccc3=O)cn2)cc1Nc1ccccc1S(C)(=O)=O [Example 301]
90	157			CNC(=O)c1cnc(Nc2cc(C#N)ccn2)cc1Nc1ccc(F)cc1OCF [Example 166]
210	492			CNC(=O)c1cnc(Nc2ccc(N3CCOCC3)cn2)cc1Nc1ccc(OC)cc1OC [Example 220]
710	1560			CNC(=O)c1cnc(Nc2ccc(C(N)=O)cn2)cc1Nc1ccc(Cl)cc1OC [Example 255]
240	1140			CNC(=O)c1cnc(Nc2ccc(F)cn2)cc1Nc1ccc(F)cc1OCF [Example 151]
460	470			CNC(=O)c1cnc(Nc2cc(C)c(F)cn2)cc1Nc1ccc(C(=O)N2CC(F)(F)C2)cc1S(C)(=O)=O [Example 413]

Compound	IC50 [1, 3] [nM]	IC50 [2, 4] [nM]	IC50 ([1]; Homo sapiens, KIT225, read-out: IFNα (Kit225 T Cell Inhibition Data)) [nM]	IC50 ([2]; Homo sapiens, KIT225, read-out: IL23 (Kit225 T Cell Inhibition Data)) [nM]
CNC(=O)c1cnc(Nc2cnc(C)cn2)cc1Nc1ccccc1S(C)(=O)=O [Example 40]	130	130		
CNC(=O)c1cnc(Nc2cc(C(C)(C)C)ccn2)cc1Nc1ccccc1S(C)(=O)=O [Example 18]	400	1120		
